In PubChem BioAssay AID256 (DTP/NCI, 2004):
“And” between values parts separate entries of the source, which are not always exact repeats. Identical values can stand only once. Inconclusive results and toxic doses are left out. How the source made its calls: active means survival T/C of 150% or more; inactive means T/C below 125% in these data.

Tested on: CD2F1 mice, L1210 leukemia ip, survival T/C
Test: NCI In Vivo Anticancer Drug Screen. Data for tumor model L1210 Leukemia (intraperitoneal) in CD2F1 (CDF1) mice
Details: higher = longer survival
In short: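 Activity against a transplanted murine tumor was judged by comparing the compound group with a vehicle group. The outcome in the treated animals was divided by that in the controls.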

[1] = endpoint: mean survival time, dose: 100.0 mg/kg/injection, schedule: Q01DX001 (ip), vehicle: saline with Tween-80
[2] = endpoint: mean survival time, dose: 100.0 mg/kg/injection, schedule: Q04DX002 (ip), vehicle: saline with Tween-80
[3] = endpoint: mean survival time, dose: 200.0 mg/kg/injection, schedule: Q04DX002 (ip), vehicle: saline with Tween-80
[4] = endpoint: mean survival time, dose: 400.0 mg/kg/injection, schedule: Q04DX002 (ip), vehicle: saline with Tween-80
[5] = endpoint: mean survival time, dose: 100.0 mg/kg/injection, schedule: Q01DX009 (ip), vehicle: saline with Tween-80
[6] = endpoint: mean survival time, dose: 100.0 mg/kg/injection, schedule: Q04DX003 (ip), vehicle: saline with Tween-80
[7] = endpoint: mean survival time, dose: 200.0 mg/kg/injection, schedule: Q01DX009 (ip), vehicle: saline with Tween-80
[8] = endpoint: mean survival time, dose: 200.0 mg/kg/injection, schedule: Q04DX003 (ip), vehicle: saline with Tween-80
[9] = endpoint: mean survival time, dose: 400.0 mg/kg/injection, schedule: Q01DX009 (ip), vehicle: saline with Tween-80
[10] = endpoint: mean survival time, dose: 400.0 mg/kg/injection, schedule: Q04DX003 (ip), vehicle: saline with Tween-80
[11] = endpoint: mean survival time, dose: 6.25 mg/kg/injection, schedule: Q04DX002 (ip), vehicle: saline with Tween-80
[12] = endpoint: mean survival time, dose: 12.5 mg/kg/injection, schedule: Q04DX002 (ip), vehicle: saline with Tween-80
[13] = endpoint: mean survival time, dose: 12.5 mg/kg/injection, schedule: Q01DX009 (ip), vehicle: Klucel (hydroxypropylcellulose) (HPC)
[14] = endpoint: mean survival time, dose: 100.0 mg/kg/injection, schedule: Q01DX001 (ip), vehicle: saline
[15] = endpoint: mean survival time, dose: 200.0 mg/kg/injection, schedule: Q01DX001 (ip), vehicle: saline
[16] = endpoint: mean survival time, dose: 50.0 mg/kg/injection, schedule: Q01DX009 (ip), vehicle: saline with Tween-80
[17] = endpoint: mean survival time, dose: 100.0 mg/kg/injection, schedule: Q04DX003 (ip), vehicle: saline
[18] = endpoint: mean survival time, dose: 200.0 mg/kg/injection, schedule: Q04DX003 (ip), vehicle: saline
[19] = endpoint: mean survival time, dose: 400.0 mg/kg/injection, schedule: Q04DX003 (ip), vehicle: saline

Measured: T/C

O=C(NCCCl)NCCCl
inactive: endpoint: median survival time, dose: 267.0 mg/kg/injection, schedule: Q07DX003 (ip), vehicle: saline 103 % of control | endpoint: median survival time, dose: 400.0 mg/kg/injection, schedule: Q07DX003 (ip), vehicle: saline 97 % of control | endpoint: median survival time, dose: 600.0 mg/kg/injection, schedule: Q07DX003 (ip), vehicle: saline 94 % of control | endpoint: median survival time, dose: 800.0 mg/kg/injection, schedule: Q07DX003 (ip), vehicle: saline 99 % of control and 100 % of control

CCCC(=O)Nc1ccc(S(=O)(=O)Nc2ccc(S(=O)(=O)N3CCOCC3)cc2)cc1
inactive: [1] 103 % of control | endpoint: mean survival time, dose: 200.0 mg/kg/injection, schedule: Q01DX001 (ip), vehicle: saline with Tween-80 92 % of control | endpoint: mean survival time, dose: 400.0 mg/kg/injection, schedule: Q01DX001 (ip), vehicle: saline with Tween-80 94 % of control

O=c1[nH]c2ccccc2c2c3ccccc3nn12
inactive: endpoint: mean survival time, dose: 25.0 mg/kg/injection, schedule: Q04DX002 (ip), vehicle: saline with Tween-80 113 % of control | endpoint: mean survival time, dose: 50.0 mg/kg/injection, schedule: Q04DX002 (ip), vehicle: saline with Tween-80 103 % of control | [2] 96 % of control and 100 % of control | [3] 100 % of control and 106 % of control | [4] 103 % of control

Cc1ccc(S(=O)(=O)OCC(OS(=O)(=O)c2ccc(C)cc2)C2OC3OC(C)(C)OC3C2OS(=O)(=O)c2ccc(C)cc2)cc1 (stereo not given)
inactive: [5] 103 % of control | [6] 96 % of control | [7] 103 % of control | [8] 87 % of control | [9] 89 % of control | [10] 90 % of control

C1CC2N=NC1C21CC1.[Cl][Cu][Cl]
inactive: [11] 96 % of control | [12] 108 % of control

CN(C)C(=S)SCc1ccc(Cl)cc1
inactive: endpoint: mean survival time, dose: 100.0 mg/kg/injection, schedule: Q04DX003 (ip), vehicle: other 93 % of control | endpoint: mean survival time, dose: 200.0 mg/kg/injection, schedule: Q04DX003 (ip), vehicle: other 102 % of control | endpoint: mean survival time, dose: 400.0 mg/kg/injection, schedule: Q04DX003 (ip), vehicle: other 100 % of control

COc1ccc(C(=O)C(Br)Br)cc1OC
inactive: endpoint: mean survival time, dose: 3.13 mg/kg/injection, schedule: Q04DX002 (ip), vehicle: saline with Tween-80 112 % of control | [11] 100 % of control | [12] 100 % of control

CNC(=O)OCc1c(COC(=O)NC)c(-c2ccc(F)cc2)n2c1CCC2
inactive: endpoint: mean survival time, dose: 3.13 mg/kg/injection, schedule: Q01DX009 (ip), vehicle: Klucel (hydroxypropylcellulose) (HPC) 115 % of control | endpoint: mean survival time, dose: 6.25 mg/kg/injection, schedule: Q01DX009 (ip), vehicle: Klucel (hydroxypropylcellulose) (HPC) 107 % of control | [13] 118 % of control

C=CCSc1cccc(C)c1
inactive: [14] 96 % of control | [15] 97 % of control

O=C1C(O)=Cc2coc(=O)c3ccc(-c4ccccc4)c1c23
inactive: [1] 91 % of control

O=C(O)C1C=CC(C(=O)O)c2ccccc21 (stereo not given)
inactive: endpoint: mean survival time, dose: 100.0 mg/kg/injection, schedule: Q01DX001 (ip), vehicle: Klucel (hydroxypropylcellulose) (HPC) 91 % of control | endpoint: mean survival time, dose: 200.0 mg/kg/injection, schedule: Q01DX001 (ip), vehicle: Klucel (hydroxypropylcellulose) (HPC) 90 % of control | endpoint: mean survival time, dose: 400.0 mg/kg/injection, schedule: Q01DX001 (ip), vehicle: Klucel (hydroxypropylcellulose) (HPC) 91 % of control

C/C(=N\Nc1ccc2ccccc2n1)c1ccccc1O
inactive: [2] 98 % of control | [3] 98 % of control | [4] 110 % of control

O=C1Cc2c([nH]c(=S)[nH]c2=O)N1
inactive: endpoint: median survival time, dose: 50.0 mg/kg/injection, schedule: Q01DX005 (ip), vehicle: saline 94 % of control | endpoint: median survival time, dose: 100.0 mg/kg/injection, schedule: Q01DX005 (ip), vehicle: saline 102 % of control | endpoint: median survival time, dose: 200.0 mg/kg/injection, schedule: Q01DX005 (ip), vehicle: saline 101 % of control

CCCCCCCCCCOC(=O)COc1ccc(C(C)(C)C)cc1
inactive: endpoint: mean survival time, dose: 12.5 mg/kg/injection, schedule: Q01DX009 (ip), vehicle: saline with Tween-80 106 % of control | endpoint: mean survival time, dose: 25.0 mg/kg/injection, schedule: Q01DX009 (ip), vehicle: saline with Tween-80 97 % of control | [16] 97 % of control

Nn1nc2ccccc2n1
inactive: [6] 111 % of control | [8] 117 % of control | [10] 95 % of control

NS(=O)(=O)c1cc([N+](=O)[O-])ccc1Cl
inactive: [5] 91 % of control | [7] 98 % of control

CCCCNC(=S)S
inactive: [5] 100 % of control | [6] 100 % of control | [7] 102 % of control | [8] 92 % of control | [9] 100 % of control | [10] 94 % of control

c1ccc(CN2CCCCc3ccccc32)cc1
inactive: [16] 100 % of control | [5] 98 % of control | [7] 104 % of control

O=C(CCN1C(=O)c2ccccc2C1=O)c1ccccc1
inactive: [2] 95 % of control | [3] 89 % of control | [4] 92 % of control

CCOC(=O)C(Cc1ccccc1)C1=NC(C)(C)CC(C)O1 (stereo not given)
inactive: endpoint: mean survival time, dose: 100.0 mg/kg/injection, schedule: Q04DX003 (ip), vehicle: acetone 102 % of control | endpoint: mean survival time, dose: 200.0 mg/kg/injection, schedule: Q04DX003 (ip), vehicle: acetone 109 % of control | endpoint: mean survival time, dose: 400.0 mg/kg/injection, schedule: Q04DX003 (ip), vehicle: acetone 97 % of control

COc1cccc(NC(=S)/C(=C(\[O-])c2ccc([N+](=O)[O-])cc2)[n+]2ccc(C(C)C)cc2)c1
inactive: [5] 95 % of control | [7] 93 % of control

Brc1ccc2c(c1)Cc1cc(N=Cc3ccc4c(c3)OCO4)ccc1-2
inactive: endpoint: mean survival time, dose: 100.0 mg/kg/injection, schedule: Q01DX001 (ip), vehicle: carboxymethylcellulose (CMC) 97 % of control | endpoint: mean survival time, dose: 200.0 mg/kg/injection, schedule: Q01DX001 (ip), vehicle: carboxymethylcellulose (CMC) 94 % of control | endpoint: mean survival time, dose: 400.0 mg/kg/injection, schedule: Q01DX001 (ip), vehicle: carboxymethylcellulose (CMC) 100 % of control

S=C(S)N1CCCC1
inactive: [17] 95 % of control | [18] 95 % of control | [19] 92 % of control

COCC1OC(OC)C(OC)C(OC)C1OC (stereo not given)
inactive: [5] 94 % of control | [7] 102 % of control | [9] 105 % of control

Nc1c(C(=O)O)cnn1CCO
inactive: endpoint: mean survival time, dose: 50.0 mg/kg/injection, schedule: Q04DX003 (ip), vehicle: water 94 % of control | endpoint: mean survival time, dose: 100.0 mg/kg/injection, schedule: Q04DX003 (ip), vehicle: water 100 % of control | endpoint: mean survival time, dose: 200.0 mg/kg/injection, schedule: Q04DX003 (ip), vehicle: water 100 % of control | endpoint: mean survival time, dose: 400.0 mg/kg/injection, schedule: Q04DX003 (ip), vehicle: water 97 % of control and 100 % of control | endpoint: mean survival time, dose: 700.0 mg/kg/injection, schedule: Q04DX003 (ip), vehicle: water 89 % of control

CC1(C)N=C(N)N=C(N)N1c1cccc(C(C#N)CCCc2ccccc2)c1 (stereo not given)
inactive: [13] 104 % of control | endpoint: mean survival time, dose: 25.0 mg/kg/injection, schedule: Q01DX009 (ip), vehicle: Klucel (hydroxypropylcellulose) (HPC) 104 % of control | endpoint: mean survival time, dose: 50.0 mg/kg/injection, schedule: Q01DX009 (ip), vehicle: Klucel (hydroxypropylcellulose) (HPC) 88 % of control

CC(N)(CC(=O)O)C(=O)O (stereo not given)
inactive: endpoint: mean survival time, dose: 100.0 mg/kg/injection, schedule: Q01DX009 (ip), vehicle: saline sonified 97 % of control | [6] 92 % of control | endpoint: mean survival time, dose: 200.0 mg/kg/injection, schedule: Q01DX009 (ip), vehicle: saline sonified 95 % of control | [8] 97 % of control | endpoint: mean survival time, dose: 400.0 mg/kg/injection, schedule: Q01DX009 (ip), vehicle: saline sonified 96 % of control | [10] 91 % of control

COc1ccc2c(c1)C1(C)CCC(=O)C(C)=C1CC2 (stereo not given)
inactive: [14] 105 % of control | [15] 98 % of control | endpoint: mean survival time, dose: 400.0 mg/kg/injection, schedule: Q01DX001 (ip), vehicle: saline 98 % of control

CN(C)N=Nc1ccccc1C(=O)NC#N
inactive: endpoint: mean survival time, dose: 9.38 mg/kg/injection, schedule: Q01DX009 (ip), vehicle: Klucel (hydroxypropylcellulose) (HPC) 101 % of control and 103 % of control and 104 % of control

CC1(C)CC(=O)C2=C(C1)OC1(O)CC(C)(C)CC(=O)C1C2c1ccccc1Cl (stereo not given)
inactive: [5] 93 % of control | [6] 92 % of control | [7] 93 % of control | [8] 94 % of control | [9] 95 % of control | [10] 96 % of control

O=C(O)CSCSCC(=O)O
inactive: [17] 97 % of control | [18] 100 % of control | [19] 97 % of control

COc1cc(OC)c(NC(=O)Oc2ccc(F)cc2Cl)cc1Cl
inactive: [16] 88 % of control | [5] 100 % of control | [7] 103 % of control
